# Like-named read-outs stand apart in the source and are kept apart here.
# Tests used:
# [1] = system: IL-12-induced IFN-γ secretion in NK92 cells; test: Inhibition of IL-12-induced IFN-γ Secretion in NK92 Cells (ELISA); type: cell-based, human; settings: 24 hours incubation, 8 concentration points, read-out: IC50 (NK92_IL12/IFNγ)
# Procedure: Inhibition of IL-12-induced IFN-γ Secretion in NK92 Cells
# The effect of the compounds of the present invention on IFN-γ secretion induced by IL-12 in NK92 cells was evaluated by an enzyme-linked immunosorbent assay (ELISA).
# IL-12 receptor is mainly expressed in activated T-cells, NK cells (NK92 is a NK cell line), DC cells, and B-cells. When binding to IL-12, it activates JAK2/TYK2 signal transduction pathway within NK cells and T lymphocytes, thereby inducing secretion of IFN-γ.
# (§1) The experimental method is generally described below:
# The test compound was dissolved in DMSO to 2.5 mM, followed by a serial 4-fold dilution with DMSO to a minimum concentration of […]. Each concentration was further diluted 50-fold with an FBS-free MEMα medium (Gibco, 12561-056).
# NK92 cells (Nanjing Cobioer, CBP60980) were cultured in a complete MEMα medium containing 12.5% FBS (Ausbian, VS500T), 12.5% horse serum (Gibco, 16050-122), 0.02 mM folic acid (Sigma, F8758), 0.2 mM inositol (Sigma, 17850), 0.55 mM β-mercaptoethanol (Gibco, 21985-023), 200 U/mL IL-2 (R&D Systems, 202-1L), and 100 U/mL penicillin (Thermofisher, 15140122). When covering 80-90% of the culture container surface, the cells were dispersed and plated on a 96-well plate (Thermofisher, 167425) with 100,000 cells per well (80 μL of the complete MEMα medium without IL-2). The 96-well plate was then incubated overnight in a 37° C./5% CO2 incubator.
# After overnight incubation, 10 μL of the test compound and 10 μL of 50 ng/mL IL-12 (R & D Systems, 219-1L) were added to each well and mix gently, and the 96-well plate was incubated in the 37° C./5% CO2 incubator for additional 24 hours. The plate as centrifuged at 800 rpm for 10 minutes at room temperature and 50 μL of the supernatant from each well was transferred to another 96-well plate (Sigma, CLS3695) coated with anti-IFN-γ antibody. The amount of IFN-γ secretion was detected following the instruction from the Human IFN-γ DuoSet ELISA kit (R & D Systems, DY285B). In the experiment, the group with IL-12 and the test compound being replaced with the MEMα medium was the non-stimulated control group (100% inhibition), and the group with IL-12 and 0.2% DMSO was the stimulated group (0% inhibition). The percentage of inhibition on IL-12 induced IFN-γ secretion in NK-92 cells by the test compound was calculated using the following formula: Percentage of inhibition=100−100*(signalcompound−signalnon-stimulated control)/(signalstimulated control−signalnon-stimulated control)
# The IC50 value of the test compound was calculated front 8 concentration points using the XLfit software (ID Business Solutions Ltd., UK) by the following formula: Y=Bottom+(Top−Bottom)/(1+10^((log IC50−X)×slope factor))
# (§2) Where Y was the percentage of inhibition, X was the logarithm of the concentration of the test compound, Bottom was the bottom plateau value of the S-shaped curve, Top was the top plateau value of the S-shaped curve, and slope factor was the slope coefficient of the curve.
# [2] = biological target: T1, human recombinant TYK2 protein (Homo sapiens, UniProt P29597); test: TYK2 Inhibition Assay (HTRF kinase assay); type: biochemical; settings: human recombinant TYK2, 11.25 μM ATP substrate solution
# T1 construct: purchased Carna Biosciences 08-147
# T1 sequence (P29597 871-1187 limits assumed): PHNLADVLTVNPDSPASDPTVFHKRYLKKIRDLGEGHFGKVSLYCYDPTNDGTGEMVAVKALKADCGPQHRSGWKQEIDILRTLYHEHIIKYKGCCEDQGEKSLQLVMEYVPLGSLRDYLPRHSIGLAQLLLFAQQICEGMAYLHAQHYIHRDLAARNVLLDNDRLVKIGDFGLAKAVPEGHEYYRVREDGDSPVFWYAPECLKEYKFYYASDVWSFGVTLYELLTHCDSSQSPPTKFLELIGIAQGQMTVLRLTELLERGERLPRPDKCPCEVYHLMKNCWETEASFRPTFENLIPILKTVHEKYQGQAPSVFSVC
# Procedure: The effect of the compounds of the present invention on the enzymatic activity of TYK2 was assessed by detecting the substrate phosphorylation level in a kinase reaction using the HTRF kinase assay detection kit (Cisbio, Cat. No. 62TK0PEC).
# as §1
# A reaction buffer contained the following components: an enzyme reaction buffer (1×), 5 mM MgCl2 mM DTT and 0.01% Brij35 from the kit. A TYK2 kinase solution contained human recombinant TYK2 protein (Carna Biosciences, 08-147) diluted in the reaction buffer to 0.25 ng/μL. A substrate reaction solution contained 11.25 μM ATP and 0.5 μM of a biotinylated tyrosine kinase substrate from the kit in the reaction buffer. A detection solution contained 0.1 ng/μL Eu^3+-labeled cage antibody (Cisbio, 61T66KLB) and 25 nM streptavidin-1 added XL665 (Cisbio, 610SAXLB) in the reaction buffer.
# (§3) The test compound was dissolved in DMSO to 10 μM, followed by a serial 4-fold dilution with DMSO to a minimum concentration of 0.061 nM. Each concentration was further diluted 40-fold with the reaction buffer.
# (§4) To a 384-well assay plate (Corning, 3674) were added 4 μL of compound solution and 2 μL of TYK2 kinase solution. The mixture was mixed and incubated at room temperature for 15 minutes, and then added with 4 μL of the substrate reaction solution. After further incubation at room temperature for 40 minutes, the reaction mixture was added with an equal volume of 10 μL detection solution and allowed to stand at room temperature for 30 minutes. An Envision plate reader (Perkin Elmer) was then used to measure the progress of the reaction at 620 nm and 665 nm. The ratio of absorbances at 665 nm and 620 nm was positively correlated with the degree of substrate phosphorylation, therefore the activity of TYK2 kinase was detected. In the experiment, the group without TYK2 kinase protein was treated as the 100% inhibition group, and the group with TYK2 kinase protein but not the test compound was treated as the 0% inhibition group. The percentage of inhibition on TYK2 kinase activity by the test, compound was calculated using the following formula: Percentage of inhibition=100−100*(ratiocompound−ratio100% inhibition)/(ratio0% inhibition−ratio100% inhibition)
# The IC50 value of the test compound was calculated from 8 concentration points using the XLfit software (ID Business Solutions Ltd., UK) by the following formula: Y=Bottom+(Top−Bottom)/(1+10^((log IC50−X)slope factor))
# as §2
# [3] = biological target: T2, human recombinant JAK2 protein (Homo sapiens, UniProt O60674); test: JAK2 Inhibition Assay (HTRF kinase assay); type: biochemical; settings: human recombinant JAK2, 2.5 μM ATP substrate solution
# T2 construct: purchased Carna Biosciences 08-045
# T2 sequence (O60674 826-1132 limits assumed): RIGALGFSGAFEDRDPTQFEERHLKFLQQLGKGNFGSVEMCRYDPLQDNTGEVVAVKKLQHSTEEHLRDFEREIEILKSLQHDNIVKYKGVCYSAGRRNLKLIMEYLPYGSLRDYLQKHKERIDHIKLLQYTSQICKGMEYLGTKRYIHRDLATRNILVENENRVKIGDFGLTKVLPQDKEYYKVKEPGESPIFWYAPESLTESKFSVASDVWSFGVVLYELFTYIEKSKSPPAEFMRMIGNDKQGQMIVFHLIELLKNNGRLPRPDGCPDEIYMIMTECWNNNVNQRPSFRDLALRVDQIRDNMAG
# Procedure: The effect of the compounds of the present invention on the enzymatic activity of JAK2 was assessed by detecting the substrate phosphorylation level in a kinase reaction using the HTRF kinase assay detection kit (Cisbio, Cat. No. 62TK0PEC).
# as §1
# A reaction buffer contained the following components: an enzyme reaction buffer (1×), 5 mM MgCl2, 1 mM DTT and 0.01% Brij35 from the kit. A JAK2 kinase solution contained a human recombinant JAK2 protein (Carna Biosciences, 08-045) diluted in the reaction buffer to 0.15 ng/μL. A substrate reaction solution contained 2.5 μM ATP and 0.25 μM of a biotinylated tyrosine kinase substrate from the kit in the reaction buffer. A detection solution contained 0.1 ng/μL Eu^3+-labeled cage antibody (Cisbio, 61T66KLB) and 12.5 nM streptavidin-labeled XL665 (Cisbio, 610SAXLB) in the reaction buffer.
# as §3
# as §4, with “JAK2” for “TYK2”, “30” for “40”, “test” for “test,”
# The IC50 value of the test compound was calculated from 8 concentration points using the XLfit softwere (ID Business Solutions Ltd., UK) by the following formula: Y=Bottom+(Top−Bottom)/(1+10^((log IC50−X)×slope factor))
# Where Y was the percentage of inhibition, X was the logarithm of the concentration of the test compound. Bottom was the bottom plateau value of the S-shaped curve, Top was the top plateau value of the S-shaped curve, and slope factor was the slope coefficient of the curve.
Compound,IC50 [1],IC50 [2],IC50 [3],IC50 ([1]; Homo sapiens)
"3-((3aR,6aS)-3a,6a-dimethyl-5-5-methyl-2-((1-methyl-1H-pyrazol-4-yl)amino)pyrimidin-4-yl)hexahydropyrrolo[3,4-c]pyrrol-2(1H)-yl)-3-oxopropanenitrile [Compound 57]",5240 nM,2.3 nM,3.2 nM,
"4-(3aR,6aS)-5-(isoxazol-5-ylmethyl)-3a,6a-dimetylhexahydropyrrolo[3,4-c]pyrrol-2(1H)-yl)-5-methyl-N-(1-methyl-1H-pyrazol-4-yl)pyrimidin-2-amine [Compound 67]",291 nM,6 nM,2.2 nM,
"Cn1cc(Nc2ncc(Cl)c(N3C[C@@H]4CN(S(C)(=O)=O)C[C@]4(C)C3)n2)cn1 (racemic) [Compound 61, cis-5-chloro-N-(1-methyl-1H-pyrazol-4-yl)-4-(3a-methyl-5-(methylsulfonyl)hexahydropyrrolo[3,4-c]pyrrol-2(1H)-yl)pyrimidin-2-amine]",,1.6 nM,8.9 nM,578 nM
"Cn1cc(Nc2ncc(Cl)c(N3C[C@H]4CN(C(=O)C5CC5)C[C@@]4(C)C3)n2)cn1 (racemic) [Compound 62, cis-(5-(5-chloro-2-((1-methyl-1H-pyrazol-4-yl)amino)pyrimidin-4-yl)-3a-methylhexahydropyrrolo[3,4-c]pyrrol-2(1H)-yl)(cyclopropyl)methanone]",,0.6 nM,2.6 nM,269 nM
"Cn1cc(Nc2ncc(Cl)c(N3C[C@@H]4CN(C(=O)CC#N)C[C@]4(C)C3)n2)cn1 (racemic) [Compound 63, cis-3-(5-(5-chloro-2-((1-methyl-IH-pyrazol-4-yl)amino)pyrimidin-4-yl)-3a-methylhexahydropyrrolo[3,4-c]pyrrol-2(1H)-yl)-3-oxopropanenitrile]",,0.3 nM,1.2 nM,267 nM
"Cn1cc(Nc2ncc(Cl)c(N3C[C@@H]4CN(C(=O)c5ccno5)C[C@]4(C)C3)n2)cn1 (racemic) [Compound 64, cis-(5-(5-chloro-2-((1-methyl-1H-pyrazol-4-yl)amino)pyrimidin-4-yl)-3a-methylhexahydropyrrolo[3,4-c]pyrrol-2(1H)-yl)(isoxazol-5-yl)methanone]",,0.5 nM,3.3 nM,162 nM
"Cn1cc(Nc2ncc(Cl)c(N3C[C@@H]4CN(C(=O)C5CC5(F)F)C[C@]4(C)C3)n2)cn1 (mixture of isomers) [Compound 65, cis-(5-(5-chloro-2-((1-methyl-1H-pyrazol-4-yl)amino)pyrimidin-4-yl)-3a-methylhexahydropyrrolo[3,4-c]pyrrol-2(1H)-yl)((S)-2,2-difluorocyclopropyl)methanone]",,0.5 nM,1.3 nM,136 nM
"Cn1cc(Nc2ncc(Cl)c(N3C[C@@H]4CN(C(=O)CC(F)(F)F)C[C@]4(C)C3)n2)cn1 (racemic) [Compound 68, cis-1-(5-(5-chloro-2((1-methyl-1H-pyrazol-4-yl)amino)pyrimidin-4-yl)-3a-methylhexahydropyrrolo[3,4-c]pyrrol-2(1H)-yl)-3,3,3-trifluoropropan-1-one]",,1.4 nM,31 nM,330 nM
"Cc1cnc(Nc2cnn(C)c2)nc1N1C[C@@H]2CN(C(=O)C3CC3)C[C@]2(C)C1 (racemic) [Compound 70, cis-cyclopropyl(3a-methyl-5-(5-methyl-2-((1-methyl-1H-pyrazol-4-yl)amino)pyrimidin-4-yl)hexahydropyrrolo[3,4-c]pyrrol-2(1H)-yl)methanone]",,5.3 nM,17 nM,1200 nM
"Cc1cnc(Nc2cnn(C)c2)nc1N1C[C@@H]2CN(C(=O)CC#N)C[C@]2(C)C1 (racemic) [Compound 71, cis-3-(3a-methyl-5-(5-methyl-2-((1-methyl-1H-pyrazol-4-yl)amino)pyrimidin-4-yl)hexahydropyrrolo[3,4-c]pyrrol-2(1H)-yl)-3-oxopropanenitrile]",,1.2 nM,3.3 nM,3540 nM

# From patent US12448382B2, “Heterocyclic compounds for mediating tyrosine kinase 2 activity” (GUANGZHOU INNOCARE PHARMA TECH CO., LTD., priority 2019, dated 2025)
